ChEMBL document CHEMBL4196087 (Eur J Med Chem, 2018)

Assays:
UO-31 [1] = assay: Antiproliferative activity against human UO31 cells after 48 hrs by MTT assay; assay type: functional, cell-based; conditions: UO-31, 48 h
UO-31 [2] = assay: Potency index, ratio of doxorubicin IC50 to compound IC50 for antiproliferative activity against human UO31 cells; assay type: functional
UO-31 [3] = assay: Antiproliferative activity against human UO31 cells after 48 hrs by SRB assay; assay type: functional; conditions: UO-31, 48 h
UO-31 [4] = assay: Cell cycle arrest in human UO31 cells assessed as accumulation at G1 phase at 0.75 uM after 24 hrs by propidium iodide staining based flow cytometry (reference value: 69.55%); assay type: functional
UO-31 [5] = assay: Cell cycle arrest in human UO31 cells assessed as accumulation at G2 phase at 0.75 uM after 24 hrs by propidium iodide staining based flow cytometry (reference value: 5.49%); assay type: functional
UO-31 [6] = assay: Cell cycle arrest in human UO31 cells assessed as accumulation at S phase at 0.75 uM after 24 hrs by propidium iodide staining based flow cytometry (reference value: 24.47%); assay type: functional
UO-31 [7] = assay: Cell cycle arrest in human UO31 cells assessed as apoptotic cells at 0.75 uM after 24 hrs by propidium iodide staining based flow cytometry (reference value: 0.49%); assay type: functional
UO-31 [8] = assay: Cell cycle arrest in human UO31 cells assessed as accumulation at pre-G1 phase at 0.75 uM after 24 hrs by propidium iodide staining based flow cytometry relative to control; assay type: functional
UO-31 [9] = assay: Cell cycle arrest in human UO31 cells assessed as accumulation at G2/M phase at 0.75 uM after 24 hrs by propidium iodide staining based flow cytometry relative to control; assay type: functional
UO-31 [10] = assay: Induction of apoptosis in human UO31 cells assessed as live cells at 0.75 uM after 24 hrs by Annexin V-FITC/propidium iodide staining based low cytometry (reference value: 97.84%); assay type: functional
UO-31 [11] = assay: Induction of apoptosis in human UO31 cells assessed as early apoptotic cells at 0.75 uM after 24 hrs by Annexin V-FITC/propidium iodide staining based flow cytometry (reference value: 0.19%); assay type: functional
UO-31 [12] = assay: Induction of apoptosis in human UO31 cells assessed as late apoptotic cells at 0.75 uM after 24 hrs by Annexin V-FITC/propidium iodide staining based flow cytometry (reference value: 0.22%); assay type: functional
UO-31 [13] = assay: Induction of apoptosis in human UO31 cells assessed as necrotic cells at 0.75 uM after 24 hrs by Annexin V-FITC/propidium iodide staining based flow cytometry (reference value: 0.08%); assay type: functional
UO-31 [14] = assay: Induction of apoptosis in human UO31 cells assessed as caspase-3 activation by measuring active caspase-3 level at 0.75 uM by […] (reference value: 66 pg/ml); assay type: functional
DNA topoisomerase 2-beta [15] = target: T1, DNA topoisomerase 2-beta (Homo sapiens, UniProt Q02880); assay: Inhibition of human topoisomerase-2B after 2 hrs by ELISA
T1 sequence (Q02880 whole entry): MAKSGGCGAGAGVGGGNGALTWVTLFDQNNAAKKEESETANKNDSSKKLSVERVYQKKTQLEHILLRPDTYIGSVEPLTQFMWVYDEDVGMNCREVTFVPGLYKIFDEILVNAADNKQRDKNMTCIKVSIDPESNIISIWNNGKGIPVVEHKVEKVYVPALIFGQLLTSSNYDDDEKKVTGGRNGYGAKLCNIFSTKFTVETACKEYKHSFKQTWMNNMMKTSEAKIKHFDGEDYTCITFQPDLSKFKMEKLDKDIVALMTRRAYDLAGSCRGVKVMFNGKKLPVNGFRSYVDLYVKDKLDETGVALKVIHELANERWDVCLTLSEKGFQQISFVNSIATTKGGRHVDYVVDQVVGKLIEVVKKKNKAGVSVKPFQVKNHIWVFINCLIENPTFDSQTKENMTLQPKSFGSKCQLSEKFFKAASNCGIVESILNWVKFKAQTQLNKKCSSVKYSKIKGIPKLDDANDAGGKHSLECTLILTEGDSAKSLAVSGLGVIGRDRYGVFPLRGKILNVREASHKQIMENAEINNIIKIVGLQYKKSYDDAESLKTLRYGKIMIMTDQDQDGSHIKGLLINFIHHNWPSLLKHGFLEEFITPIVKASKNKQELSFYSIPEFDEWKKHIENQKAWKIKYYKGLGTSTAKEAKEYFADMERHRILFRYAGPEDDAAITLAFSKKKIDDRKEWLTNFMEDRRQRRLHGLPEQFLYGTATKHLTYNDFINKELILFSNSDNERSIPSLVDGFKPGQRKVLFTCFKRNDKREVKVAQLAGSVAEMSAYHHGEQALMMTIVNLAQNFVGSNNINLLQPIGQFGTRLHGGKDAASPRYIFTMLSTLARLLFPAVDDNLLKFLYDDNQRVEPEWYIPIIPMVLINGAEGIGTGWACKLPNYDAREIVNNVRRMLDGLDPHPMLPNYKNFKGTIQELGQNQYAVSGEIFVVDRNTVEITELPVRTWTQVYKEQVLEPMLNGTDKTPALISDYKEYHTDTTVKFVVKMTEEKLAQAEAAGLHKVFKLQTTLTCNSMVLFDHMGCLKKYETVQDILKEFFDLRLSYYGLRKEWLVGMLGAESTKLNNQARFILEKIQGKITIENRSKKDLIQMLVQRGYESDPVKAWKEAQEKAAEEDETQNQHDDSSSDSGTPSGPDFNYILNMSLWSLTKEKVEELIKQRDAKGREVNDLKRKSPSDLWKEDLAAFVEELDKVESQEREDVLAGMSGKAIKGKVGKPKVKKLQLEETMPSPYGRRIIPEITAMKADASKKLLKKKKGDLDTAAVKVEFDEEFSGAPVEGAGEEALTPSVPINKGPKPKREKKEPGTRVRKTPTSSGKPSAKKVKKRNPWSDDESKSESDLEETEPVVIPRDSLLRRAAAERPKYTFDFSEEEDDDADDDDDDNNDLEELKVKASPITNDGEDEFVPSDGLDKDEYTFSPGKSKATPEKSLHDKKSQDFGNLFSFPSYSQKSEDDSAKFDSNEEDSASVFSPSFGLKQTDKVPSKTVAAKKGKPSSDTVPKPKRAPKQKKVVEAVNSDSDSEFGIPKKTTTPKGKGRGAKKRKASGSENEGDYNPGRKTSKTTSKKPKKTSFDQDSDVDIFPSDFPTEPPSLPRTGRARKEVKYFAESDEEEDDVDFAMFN

DNA topoisomerase 2-beta [16] = target: T1, DNA topoisomerase 2-beta; assay: Potency index, ratio of doxorubicin IC50 to compound IC50 for inhibition of human topoisomerase-2B
DNA topoisomerase 2-beta [17] = target: T1, DNA topoisomerase 2-beta; assay: Potency index, ratio of amsacrine IC50 to compound IC50 for inhibition of human topoisomerase-2B
DNA topoisomerase 2-beta [18] = target: T1, DNA topoisomerase 2-beta; assay: Potency index, ratio of etoposide IC50 to compound IC50 for inhibition of human topoisomerase-2B
Bacillus subtilis = assay: Antibacterial activity against Bacillus subtilis at 37 degC measured after 24 hrs by agar disc diffusion method; assay type: functional
Staphylococcus aureus = assay: Antibacterial activity against Staphylococcus aureus at 37 degC measured after 24 hrs by agar disc diffusion method; assay type: functional
Escherichia coli = assay: Antibacterial activity against Escherichia coli at 37 degC measured after 24 hrs by agar disc diffusion method; assay type: functional
Pseudomonas aeruginosa = assay: Antibacterial activity against Pseudomonas aeruginosa at 37 degC measured after 24 hrs by agar disc diffusion method; assay type: functional
MOLT-4 = assay: Growth inhibition of human MOLT4 cells at 10^-5 M incubated for 48 hrs by sulforhodamine B assay relative to control; assay type: functional; conditions: MOLT-4, 48 h, read-out: GI
HOP-62 = assay: Growth inhibition of human HOP62 cells at 10^-5 M incubated for 48 hrs by sulforhodamine B assay relative to control; assay type: functional; conditions: HOP-62, 48 h, read-out: GI
HOP-92 = assay: Growth inhibition of human HOP92 cells at 10^-5 M incubated for 48 hrs by sulforhodamine B assay relative to control; assay type: functional; conditions: HOP-92, 48 h, read-out: GI
LOX IMVI = assay: Growth inhibition of human LOXIMVI cells at 10^-5 M incubated for 48 hrs by sulforhodamine B assay relative to control; assay type: functional; conditions: read-out: GI
UO-31 [19] = assay: Growth inhibition of human UO31 cells at 10^-5 M incubated for 48 hrs by sulforhodamine B assay relative to control; assay type: functional; conditions: UO-31, 48 h, read-out: GI
PC-3 = assay: Growth inhibition of human PC3 cells at 10^-5 M incubated for 48 hrs by sulforhodamine B assay relative to control; assay type: functional; conditions: PC-3, 48 h, read-out: GI
T47D = assay: Growth inhibition of human T47D cells at 10^-5 M incubated for 48 hrs by sulforhodamine B assay relative to control; assay type: functional; conditions: read-out: GI
SK-OV-3 = assay: Growth inhibition of human SKOV3 cells at 10^-5 M incubated for 48 hrs by sulforhodamine B assay relative to control; assay type: functional; conditions: SK-OV-3, 48 h, read-out: GI

## O=C(CN1CCN(c2cc3c(cc2F)c(=O)c(C(=O)O)cn3C2CC2)CC1)N/N=C/c1ccccc1O
UO-31 [1]
  IC50: 0.75 µM
UO-31 [2]
  Ratio IC50: 1.5 - 9
UO-31 [3]
  LC50: 15.2 µM
UO-31 [4]
  Activity: 59.87%
UO-31 [5]
  Activity: 11.28%
UO-31 [6]
  Activity: 22.02%
UO-31 [7]
  Activity: 6.83%
UO-31 [8]
  fold change (FC): 13.9
UO-31 [9]
  fold change (FC): 2.05
UO-31 [10]
  Activity: 91.8%
UO-31 [11]
  Activity: 2.64%
UO-31 [12]
  Activity: 3.32%
UO-31 [13]
  Activity: 0.87%
UO-31 [14]
  Activity: 346.4 pg/mL
DNA topoisomerase 2-beta [15]
  IC50: 0.58 µM
DNA topoisomerase 2-beta [16]
  Ratio IC50: 6
DNA topoisomerase 2-beta [17]
  Ratio IC50: 5
DNA topoisomerase 2-beta [18]
  Ratio IC50: 1.5
Bacillus subtilis
  diameter of the inhibition zone (DIZ): 18 mm
Staphylococcus aureus
  diameter of the inhibition zone (DIZ): 15 mm
Escherichia coli
  diameter of the inhibition zone (DIZ): 16 mm
Pseudomonas aeruginosa
  diameter of the inhibition zone (DIZ): 17 mm

## O=C(O)c1cn(C2CC2)c2cc(N3CCN(Cc4nnc(S)o4)CC3)c(F)cc2c1=O
MOLT-4
  inhibition of growth at 10 µM: 23%
HOP-62
  inhibition of growth at 10 µM: < 20%
HOP-92
  inhibition of growth at 10 µM: < 20%
LOX IMVI
  inhibition of growth at 10 µM: < 20%
UO-31 [19]
  inhibition of growth at 10 µM: < 20%
PC-3
  inhibition of growth at 10 µM: 23.4%
T47D
  inhibition of growth at 10 µM: < 20%
SK-OV-3
  inhibition of growth at 10 µM: < 20%
Bacillus subtilis
  diameter of the inhibition zone (DIZ): 29 mm
Staphylococcus aureus
  diameter of the inhibition zone (DIZ): 24 mm
Escherichia coli
  diameter of the inhibition zone (DIZ): 25 mm
Pseudomonas aeruginosa
  diameter of the inhibition zone (DIZ): 27 mm

## O=C(CN1CCN(c2cc3c(cc2F)c(=O)c(C(=O)O)cn3C2CC2)CC1)N/N=C/c1ccc(O)cc1O
UO-31 [1]
  IC50: 3.19 µM
UO-31 [2]
  Ratio IC50: 1.5 - 9
UO-31 [3]
  LC50: 13 µM
Bacillus subtilis
  diameter of the inhibition zone (DIZ): 24 mm
Staphylococcus aureus
  diameter of the inhibition zone (DIZ): 21 mm
Escherichia coli
  diameter of the inhibition zone (DIZ): 20 mm
Pseudomonas aeruginosa
  diameter of the inhibition zone (DIZ): 23 mm
